This is an account of results in patent US20230331675A1, “AROMATIC ETHYLENE COMPOUND AND PREPARATION METHOD THEREFOR, AND INTERMEDIATE, PHARMACEUTICAL COMPOSITION, AND APPLICATION THEREOF” (GUANGZHOU MAXINOVEL PHARMACEUTICALS CO., LTD., priority 2020, published 2023).

PD-1/PD-L1, sequence (Q9NZQ7 19-238): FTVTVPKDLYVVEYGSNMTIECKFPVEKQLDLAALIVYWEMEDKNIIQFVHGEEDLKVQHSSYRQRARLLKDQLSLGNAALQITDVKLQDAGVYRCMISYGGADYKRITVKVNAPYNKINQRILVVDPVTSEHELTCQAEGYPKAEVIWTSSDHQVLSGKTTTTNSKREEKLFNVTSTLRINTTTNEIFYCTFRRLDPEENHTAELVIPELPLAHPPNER

This experiment concerns the target PD-1/PD-L1 (Homo sapiens (Human), UniProt Q9NZQ7). The experiment in a line: Homogeneous time-resolved fluorescence (HTRF) binding assay. Conditions: CisBio kit, read-out: IC50 of compounds binding to PD-1/PD-L1. The text has this: Effect embodiment 1: Homogenouse time-resolved fluorescence
Homogeneous time-resolved fluorescence (HTRF) binding assay was used to determine the binding ability of the compound of the present disclosure to PD-1/PD-L1.
The purchased kit (CisBio, #64CUS000C-1) contained reagents required for assays such as PD-1, PD-L1, anti-tag1-Eu, Anti-tag2-XL665, dilute buffer, and detection buffer.
1. The compound was formulated to 10 concentrations with a 3-fold gradient with 100% DMSO.
2. The DMSO solution of the compound was added to the dilute buffer, mixed thoroughly, then transferred to a 96-well plate.
3. PD-L1 was diluted with dilute buffer, then added to the above 96-well plate.
4. PD-1 was diluted with dilute buffer and added to the above 96-well plate, which was then incubated at room temperature for 30 minutes.
5. A portion of anti-tag1-Eu and a portion of anti-tag2-XL665 were added to the detection buffer, mixed thoroughly and transferred to the above 96-well plate.
6. The mixture in the above 96-well plate was incubated at room temperature for 1 to 24 hours.
7. HTRF values were read with Envision.
For the molecule `[2H]c1c([2H])c([2H])c(-c2cccc(/C=C/c3cc(OC)c(CN4CCCC[C@H]4C(=O)O)cc3C(F)(F)F)c2C)c([2H])c1[2H]` [Compound 61, (S,E)-1-(2-Methoxy-4-(2-(2-methyl-[1,1′-biphenyl]-3-yl-2′,3′,4′,5′,6′-d5)vinyl)-5-trifluoromethylbenzyl)piperidine-2-carboxylic acid], the IC50 is 0.73 nM. With `Cc1cc(CN2CCCC[C@H]2C(=O)O)c(OCCCCF)cc1/C=C/c1cccc(-c2ccccc2)c1C` [Compound 83, (S,E)-1-(2-(4-Fluorobutoxy)-5-methyl-4-(2-(2-methyl-[1,1′-biphenyl]-3-yl)vinyl)benzyl)piperidine-2-carboxylic acid] the figure was 6.99 nM; with `Cc1cc(/C=C/c2cccc(-c3ccccc3)c2C#N)c(Cl)cc1CN1CCN(C(N)=O)C[C@H]1C(=O)O` [Compound 29, (S,E)-4-Carbamoyl-1-(5-chloro-4-(2-(2-cyano-[1,1′-biphenyl]-3-yl)vinyl)-2-methylbenzyl)piperazine-2-carboxylic acid], 62 nM. With `Cc1cc(CN2CCOC[C@H]2C(=O)O)c(OCCO)cc1/C=C/c1cccc(-c2ccccc2)c1C#N` [Compound 30, (S,E)-4-(4-(2-(2-Cyano-[1,1′-biphenyl]-3-yl)vinyl)-2-(2-hydroxyethoxy)-5-methylbenzyl)morpholine-3-carboxylic acid], the IC50 is 7.7 nM.

For the molecule `Cc1cc(OCCCCC#N)c(CN2CCCC[C@H]2C(=O)O)cc1/C=C/c1cccc(-c2ccccc2)c1C#N` [Compound 39, (S,E)-1-(5-(2-(2-Cyano-[1,1′-biphenyl]-3-yl)vinyl)-2-(4-cyanobutoxy)-4-methylbenzyl)piperidine-2-carboxylic acid], the IC50 worked out at 172 nM.

With `Cc1cc(OCCCCC#N)c(CN2CCOC[C@H]2C(=O)O)cc1/C=C/c1cccc(-c2ccccc2)c1C#N` [Compound 40, (S,E)-4-(5-(2-(2-Cyano-[1,1′-biphenyl]-3-yl)vinyl)-2-(4-cyanobutoxy)-4-methylbenzyl)morpholine-3-carboxylic acid], the IC50 worked out at 1440 nM. With `COc1cc(/C=C/c2cccc(-c3ccccc3)c2C)c(C)cc1CN1CCCC[C@H]1C(=O)O` [Compound 70, (S,E)-1-(2-Methoxy-5-methyl-4-(2-(2-methyl-[1,1′-biphenyl]-3-yl)vinyl)benzyl)piperidine-2-carboxylic acid] the figure was 9.31 nM; with `COCCOc1cc(/C=C/c2cccc(-c3ccccc3)c2C#N)c(C)cc1CN1CCNC[C@H]1C(=O)O` [Compound 27, (S,E)-1-(4-(2-(2-Cyano-[1,1′-biphenyl]-3-yl)vinyl)-2-(2-methoxyethoxy)-5-methylbenzyl)piperazine-2-carboxylic acid], 57.2 nM. With `COCCOc1cc(/C=C/c2cccc(-c3ccccc3)c2C#N)c(C)cc1CN1CCCC[C@H]1C(=O)O` [Compound 24, (S,E)-1-(4-(2-(2-Cyano-[1,1′-biphenyl]-3-yl)vinyl)-2-(2-methoxyethoxy)-5-methylbenzyl)piperidine-2-carboxylic acid] the figure was 6.8 nM; with `COc1cc(/C(Br)=C/c2cccc(-c3ccccc3)c2C)c(C(F)(F)F)cc1CNCCO` [Compound 66, (Z)-2-((4-(1-Bromo-2-(2-methyl-[1,1′-biphenyl]-3-yl)vinyl)-2-methoxy-5-trifluoromethylbenzyl)amino)-1-ethanol], 41.7 nM; with `COc1cc(/C=C/c2cccc(-c3ccccc3)c2CF)c(C(F)(F)F)cc1CNCCO` [Compound 74, (E)-2-((4-(2-(2-Fluoromethyl-[1,1′-biphenyl]-3-yl)vinyl)-2-methoxy-5-trifluoromethylbenzyl)amino)-1-ethanol], 7.09 nM.

Regarding `COCCOc1cc(/C=C/c2cccc(-c3ccccc3)c2C#N)c(CN2CCCC[C@H]2C(=O)O)cc1Cl` [Compound 33, (S,E)-1-(5-Chloro-2-(2-(2-cyano-[1,1′-biphenyl]-3-yl)vinyl)-4-(2-methoxyethoxy)benzyl)piperidine-2-carboxylic acid], the IC50 is above 10000 nM. As to `COc1cc(/C=C/c2cccc(-c3ccccc3)c2CF)c(C(F)(F)F)cc1CN1CCCC[C@H]1C(=O)O` [Compound 73, (S,E)-1-(4-(2-(2-Fluoromethyl-[1,1′-biphenyl]-3-yl)vinyl)-2-methoxy-5-trifluoromethylbenzyl)piperidine-2-carboxylic acid], the IC50 was 3.99 nM.

Consider “(S,E)-1-(2-Methoxy-4-(2-(2-methyl-d3)-[1,1′-biphenyl]-3-yl)vinyl)-5-trifluoromethylbenzyl)piperidine-2-carboxylic acid [Compound 51]”, for which the IC50 was determined as 2.2 nM. The value for `COc1cc(/C=C/c2cccc(-c3ccccc3)c2C)c(C(F)(F)F)cc1CN1CCCC[C@H]1C(=O)O` [Compound 6, (S,E)-1-(2-Methoxy-4-(2-(2-methyl-[1,1′-biphenyl]-3-yl)vinyl)-5-trifluoromethylbenzyl)piperidine-2-carboxylic acid] was 1.6 nM. With `Cc1c(/C=C/c2cc(OCc3cc(I)ccn3)c(CN3CCCC[C@H]3C(=O)O)cc2C(F)(F)F)cccc1-c1ccccc1` [Compound 80, (S,E)-1-(2-((4-Iodopyridin-2-yl)methoxy)-4-(2-(2-methyl-[1,1′-biphenyl]-3-yl)vinyl)-5-(trifluoromethyl)benzyl)piperidine-2-carboxylic acid] the figure was 3.97 nM; with `COc1cc(/C=C(\Br)c2cccc(-c3ccccc3)c2C)c(C)cc1CN1CCCC[C@H]1C(=O)O` [Compound 68, (S,Z)-1-(4-(2-Bromo-2-(2-methyl-[1,1′-biphenyl]-3-yl)vinyl)-2-methoxy-5-methylbenzyl)piperidine-2-carboxylic acid], 169 nM; with `N#Cc1c(/C=C/c2ccc(CN3CCCC[C@H]3C(=O)O)cc2C(F)(F)F)cccc1-c1ccccc1` [Compound 1, (S,E)-1-(4-(2-(2-Cyano-[1,1′-biphenyl]-3-yl)vinyl)-3-trifluoromethylbenzyl)piperidine-2-carboxylic acid], 10.2 nM. The value for `Cc1c(/C=C/c2ccc(CN3CCCC[C@H]3C(=O)O)cc2Cl)cccc1-c1ccccc1` [Compound 3, (S,E)-1-(3-Chloro-4-(2-(2-methyl-[1,1′-biphenyl]-3-yl)vinyl)benzyl)piperidine-2-carboxylic acid] was 87.1 nM; that for `Cc1cc(/C=C/c2cccc(-c3ccccc3)c2C#N)c(Cl)cc1CN1CCOC[C@H]1C(=O)O` [Compound 9, (S,E)-4-(5-Chloro-4-(2-(2-cyano-[1,1′-biphenyl]-3-yl)vinyl)-2-methylbenzyl)morpholine-3-carboxylic acid] was 25.8 nM. Regarding `[2H]C([2H])([2H])Oc1cc(/C=C/c2cccc(-c3ccccc3)c2C)c(Cl)cc1CN1CCCC[C@H]1C(=O)O` [Compound 59, (S,E)-1-(5-Chloro-2-(methoxy-d3)-4-(2-(2-methyl-[1,1′-biphenyl]-3-yl)vinyl)benzyl)piperidine-2-carboxylic acid], the IC50 amounted to 8.9 nM. With `COCCOc1cc(/C=C/c2cccc(-c3ccccc3)c2C#N)c(CN2CCOC[C@H]2C(=O)O)cc1Cl` [Compound 34, (S,E)-4-(5-Chloro-2-(2-(2-cyano-[1,1′-biphenyl]-3-yl)vinyl)-4-(2-methoxyethoxy)benzyl)morpholine-3-carboxylic acid] the figure was above 10000 nM; with `Cc1cc(/C=C/c2cccc(-c3ccccc3)c2C#N)c(Cl)cc1CN1CCCC[C@H]1C(=O)O` [Compound 8, (S,E)-1-(5-Chloro-4-(2-(2-cyano-[1,1′-biphenyl]-3-yl)vinyl)-2-methylbenzyl)piperidine-2-carboxylic acid], 1.6 nM; with `Cc1c(/C=C/c2cc(OCc3cncc(I)c3)c(CN3CCCC[C@H]3C(=O)O)cc2C(F)(F)F)cccc1-c1ccccc1` [Compound 82, (S,E)-1-(2-((5-Iodopyridin-3-yl)methoxy)-4-(2-(2-methyl-[1,1′-biphenyl]-3-yl)vinyl)-5-(trifluoromethyl)benzyl)piperidine-2-carboxylic acid], 1.85 nM. Consider `N#Cc1c(/C=C/c2ccc(CN3CCCC[C@H]3C(=O)O)cc2Cl)cccc1-c1ccccc1` [Compound 2, (S,E)-1-(3-Chloro-4-(2-(2-cyano-[1,1′-biphenyl]-3-yl)vinyl)benzyl)piperidine-2-carboxylic acid], for which the IC50 worked out at 26.3 nM. With `COCCOc1cc(C)c(/C=C/c2cccc(-c3ccccc3)c2C#N)cc1CN1CCCC[C@H]1C(=O)O` [Compound 43, (S,E)-1-(5-(2-(2-Cyano-[1,1′-biphenyl]-3-yl)vinyl)-2-(2-methoxyethoxy)-4-methylbenzyl)piperidine-2-carboxylic acid] the figure was 83.9 nM; with `COCCOc1cc(/C=C/c2cccc(-c3ccccc3)c2C#N)c(C)cc1CN1CCOC[C@H]1C(=O)O` [Compound 25, (S,E)-4-(4-(2-(2-Cyano-[1,1′-biphenyl]-3-yl)vinyl)-2-(2-methoxyethoxy)-5-methylbenzyl)morpholine-3-carboxylic acid], 9.1 nM; with `Cc1c(/C=C/c2ccc(CN3CCCC[C@H]3C(=O)O)cc2C(F)(F)F)cccc1-c1ccccc1` [Compound 4, (S,E)-1-(4-(2-(2-Methyl-[1,1′-biphenyl]-3-yl)vinyl)-3-trifluoromethylbenzyl)piperidine-2-carboxylic acid], 10.7 nM. With `Cc1c(/C=C/c2cc(OCc3ccc(I)cc3)c(CN3CCCC[C@H]3C(=O)O)cc2C(F)(F)F)cccc1-c1ccccc1` [Compound 78] the figure was 65.5 nM.
